Positions of bridges follow the written chain, without caps; N, C: chain ends. Non-standard residues stand in square brackets, D forms with d. Residues, ends and D or L forms follow the SMILES beside them. *: point of attachment. Ileψ(thiazoline)Cys = CC[C@H](C)[C@H](N)C1=N[C@H](C(=O)*)CS1; dOrn = NCCC[C@@H](N)C(=O)O
Assays:
E. coli DNA gyrase [1] = target: T1, E. coli DNA gyrase (Escherichia coli, UniProt P0AES4+P0AES6); assay type: biochemical; conditions: 50 μM compound; for hit in HTS pilot screen (inhibition ≥50% cutoff): duplicate; for fluorescence intensity compared with negative controls (in words): HTS screen; for Fluorescent Intensity #1 / Fluorescent Intensity #2 / Mean Fluorescent Intensity: 50-compound library screen; for Fluorescent Intensity #1: duplicate 1; for Fluorescent Intensity #1 / Fluorescent Intensity #2: low fluorescence = gyrase poison; for Fluorescent Intensity #2: duplicate 2; for Mean Fluorescent Intensity: mean of duplicates
T1 construct: made in house
T1 sequence (P0AES4 whole entry, one chain of several): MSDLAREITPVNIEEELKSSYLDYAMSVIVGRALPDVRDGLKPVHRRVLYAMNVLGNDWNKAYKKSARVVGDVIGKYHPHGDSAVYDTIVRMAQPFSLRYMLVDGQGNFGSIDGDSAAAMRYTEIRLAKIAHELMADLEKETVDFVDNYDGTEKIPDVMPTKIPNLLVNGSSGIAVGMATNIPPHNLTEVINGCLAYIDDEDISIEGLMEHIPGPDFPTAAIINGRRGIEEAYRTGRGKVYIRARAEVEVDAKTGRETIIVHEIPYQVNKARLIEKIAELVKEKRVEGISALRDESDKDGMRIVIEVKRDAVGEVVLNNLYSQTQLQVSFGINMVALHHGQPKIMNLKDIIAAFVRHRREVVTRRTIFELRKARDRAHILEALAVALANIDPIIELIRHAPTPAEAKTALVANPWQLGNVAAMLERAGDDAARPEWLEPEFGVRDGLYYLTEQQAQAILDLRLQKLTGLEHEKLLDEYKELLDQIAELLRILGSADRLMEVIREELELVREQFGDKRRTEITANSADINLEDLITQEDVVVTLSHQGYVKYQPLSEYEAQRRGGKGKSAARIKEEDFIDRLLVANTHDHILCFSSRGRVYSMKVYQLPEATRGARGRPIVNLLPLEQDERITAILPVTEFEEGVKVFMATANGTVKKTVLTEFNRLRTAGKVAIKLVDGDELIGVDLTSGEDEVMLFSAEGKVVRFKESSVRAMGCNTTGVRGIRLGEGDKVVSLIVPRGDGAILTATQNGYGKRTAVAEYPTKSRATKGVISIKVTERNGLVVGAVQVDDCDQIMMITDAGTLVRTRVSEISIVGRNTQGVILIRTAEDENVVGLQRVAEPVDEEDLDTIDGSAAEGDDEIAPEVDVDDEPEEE
Description: FIGS. 6A-6B. High throughput screening (HTS) pilot screen of the 50-compound library for E. coli DNA gyrase poisoning inhibitors in duplicate. A final compound concentration of 50 μM was used. […] (A) Fluorescence raw data.
A Fluorescence-Based, T5 Exonuclease-Amplified DNA Cleavage Assay to Identify Poisoning Inhibitors for E. coli DNA Gyrase.
For negative control experiments, 1% DMSO was used. […] 0.5 mg/mL of proteinase K was then added to the reaction mixtures to digest DNA gyrase at 50° C. for 30 min. After the DNA samples were diluted 100 times using 1×NEB buffer 4 (20 mM Tris-Acetate, pH 7.9, 50 mM KAc, 10 mM Mg(AC)2, and 1 mM DTT), 30 μL of each DNA sample was transfer to a well of a 384-well plate. 200 nM of T5 exonuclease was used to digest DNA fragment for 2 hours at 37° C. 1×SYBR™ Green was added to all DNA samples. Fluorescence intensity was measured using a Biotek microplate reader with excitation wavelength of 497 nm and emission wavelength of 525 nm.
Z′ was calculated by the following equation: […]

E. coli DNA gyrase [2] = target: T1, E. coli DNA gyrase; assay type: biochemical; conditions: for fluorescence intensity of the DNA samples (in words): validation with 10 antibiotics, FIG. 5A; for effect on SYBR Green fluorescence intensity (in words): 20 μM compound, FIG. 7A
E. coli DNA gyrase [3] = target: T1, E. coli DNA gyrase; test: Agarose gel-based DNA gyrase-mediated DNA cleavage assay; assay type: biochemical; conditions: FIG. 7B
Description: FIGS. 2A-2F. Agarose gel-based DNA gyrase cleavage assays were performed as described in Materials and Methods. […] Lane 7 is Lambda DNA HindIII digest as the molecular standard. […] 500 ng of a DNA HindIII digest was digested using 50 nM of T5E in 20 μL of 1× gyrase-mediated DNA cleavage buffer (20 mM Tris-HCl pH 8, 50 mM KAc, 10 mM MgCl2, 2 mM DTT, 1 mM ATP, 0.1 mg/mL BSA) for 30 min in the presence of different concentrations of SDS. […] (E) Effects of sarkosyl on T5 exonuclease (T5E). 500 ng of a DNA HindIII digest was digested using 50 nM of T5E in 20 μL of 1× gyrase-mediated DNA cleavage buffer for 30 min in the presence of different concentrations of sarkosyl. […] Lanes 1-7 contained 0, 5, 10, 20, 30, 40, and 50 nM of T5 exonuclease, respectively.
DNA Gyrase and Human DNA Topoisomerase IIα Mediated DNA Cleavage Assay.
250 ng of relaxed plasmid pBR322 and 20 nM of E. coli DNA gyrase or human DNA topoisomerase IIα were mixed and incubated in 1×gyrase-mediated DNA cleavage buffer (20 mM Tris-HCl pH 8, 50 mM KAc, 10 mM MgCl2, 2 mM DTT, 1 mM ATP, 0.1 mg/mL BSA) at 37° C. for 15 minutes in the presence of an inhibitor or compound. After the incubation, 0.2% SDS and 0.1 mg/ml proteinase K were added to the reaction mixtures to trap the topoisomerase-inhibitor-DNA complex and digest the topoisomerase, respectively, by incubating for an additional 30 min at 37° C. DNA samples were analyzed in 1% agarose gel containing […] ethidium bromide in 1′TAE buffer and photographed under UV light. […] Etoposide was used as a positive control for human DNA topoisomerase IIα-mediated DNA cleavage assays.

E. coli DNA gyrase [4] = target: T1, E. coli DNA gyrase; conditions: read-out: IC50 against E. coli DNA gyrase; cited from earlier work
T5 exonuclease = target: T2, T5 exonuclease (Escherichia phage T5, UniProt P06229); test: Detergent inhibition of T5 exonuclease on lambda DNA HindIII digest; assay type: biochemical; set-up: detergent concentration that inhibits T5 exonuclease: dose or concentration left out as unconfirmed
T2 construct: made in house
T2 sequence (P06229 whole entry): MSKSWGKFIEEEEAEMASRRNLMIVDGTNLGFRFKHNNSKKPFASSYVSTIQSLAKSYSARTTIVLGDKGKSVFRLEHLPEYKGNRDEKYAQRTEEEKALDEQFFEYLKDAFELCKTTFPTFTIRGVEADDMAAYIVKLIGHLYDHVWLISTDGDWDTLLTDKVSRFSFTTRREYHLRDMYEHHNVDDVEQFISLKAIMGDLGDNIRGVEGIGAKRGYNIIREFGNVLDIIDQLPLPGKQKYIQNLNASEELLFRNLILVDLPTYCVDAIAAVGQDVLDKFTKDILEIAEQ
Description: FIGS. 2A-2F. Agarose gel-based DNA gyrase cleavage assays were performed as described in Materials and Methods. […] Lane 7 is Lambda DNA HindIII digest as the molecular standard. […] (C) The appearance and disappearance of the gyrase-mediated linear band of plasmid pBR322 is dependent of the E. coli DNA gyrase concentration. High concentrations of E. coli DNA gyrase also cause disappearance of the supercoiled plasmid in the gyrase-mediated DNA cleavage assays. […] 500 ng of a DNA HindIII digest was digested using 50 nM of T5E in 20 μL of 1× gyrase-mediated DNA cleavage buffer (20 mM Tris-HCl pH 8, 50 mM KAc, 10 mM MgCl2, 2 mM DTT, 1 mM ATP, 0.1 mg/mL BSA) for 30 min in the presence of different concentrations of SDS. […] contained 0.000625, 0.00125, 0.0025, 0.005, 0.0125, and 0.025%, respectively. (E) Effects of sarkosyl on T5 exonuclease (T5E). 500 ng of a DNA HindIII digest was digested using 50 nM of T5E in 20 μL of 1× gyrase-mediated DNA cleavage buffer for 30 min in the presence of different concentrations of sarkosyl. Lanes 3 to 10 contained 0.005, 0.0125, 0.015, 0.02, 0.025, 0.05, 0.125, and 0.25%, respectively. (F) 50 nM of T5 exonuclease completely digested 500 ng of a DNA HindIII digest in 1× gyrase-mediated DNA cleavage buffer in the presence of 0.00125%. Lanes 1-7 contained 0, 5, 10, 20, 30, 40, and 50 nM of T5 exonuclease, respectively.
FIG. 3. […]

| Molecule | hit in HTS pilot screen (inhibition ≥50% cutoff) (E. coli DNA gyrase [1]) | Fluorescent Intensity #1 (E. coli DNA gyrase [1]) | Fluorescent Intensity #2 (E. coli DNA gyrase [1]) | Mean Fluorescent Intensity (E. coli DNA gyrase [1]) | further results |
| --- | --- | --- | --- | --- | --- |
| CCN1CCN(c2cc3c(cc2F)c(=O)c(C(=O)O)cn3C2CC2)CC1 [enrofloxacin] | hits | – | – | – | – |
| CC1(C)S[C@@H]2[C@H](NC(=O)[C@H](N)c3ccccc3)C(=O)N2[C@H]1C(=O)O [ampicillin] | – | – | – | – | fluorescence intensity of the DNA samples (in words) (E. coli DNA gyrase [2]): high |
| Nc1ccc(S(N)(=O)=O)cc1 [sulfanilamide] | – | – | – | – | fluorescence intensity of the DNA samples (in words) (E. coli DNA gyrase [2]): high |
| CC[C@@]1(O)C(=O)OCc2c1cc1n(c2=O)Cc2cc3c(CN(C)C)c(O)ccc3nc2-1 [topotecan] | – | – | – | – | effect on SYBR Green fluorescence intensity (in words) (E. coli DNA gyrase [2]): did not reduce the fluorescence intensity; gyrase-mediated DNA cleavage / gyrase poisoning (in words) (E. coli DNA gyrase [3]): do not possess gyrase poisoning properties; fluorescence intensity compared with negative controls (in words) (E. coli DNA gyrase [1]): significant low fluorescence signals |
| CC[C@H](C)[C@H](N)C1=N[C@H](C(=O)N[C@@H](CC(C)C)C(=O)N[C@H](CCC(=O)O)C(=O)N[C@H](C(=O)N[C@H]2CCCCNC(=O)[C@H](CC(N)=O)NC(=O)[C@@H](CC(=O)O)NC(=O)[C@H](Cc3cnc[nH]3)NC(=O)[C@@H](Cc3ccccc3)NC(=O)[C@H]([C@@H](C)CC)NC(=O)[C@@H](CCCN)NC2=O)[C@@H](C)CC)CS1 [bacitracin] ({Ileψ(thiazoline)Cys}-L[dE]IK[dOrn]I[dF]H[dD]N; lactam 4-C) | – | 7743 | 6533 | 7138 | – |
| polymyxin B sulfate salt | – | 6067 | 10508 | 8287.5 | fluorescence intensity of the DNA samples (in words) (E. coli DNA gyrase [2]): high |
| O=C[C@H](O)[C@@H](O)[C@@H](O)CO [L-arabinose] | – | 4824 | 7032 | 5928 | – |
| O=C[C@H](O)[C@@H](O)[C@@H](O)[C@H](O)CO [D-galactose] | – | 4111 | 6277 | 5194 | – |
| COc1cccc2c1C(=O)c1c(O)c3c(c(O)c1C2=O)C[C@@](O)(C(=O)CO)C[C@@H]3O[C@H]1C[C@H](N)[C@H](O)[C@H](C)O1 [doxorubicin] | hits and false positive | – | – | – | effect on SYBR Green fluorescence intensity (in words) (E. coli DNA gyrase [2]): quenched; gyrase-mediated DNA cleavage / gyrase poisoning (in words) (E. coli DNA gyrase [3]): did not cause gyrase-mediated DNA cleavage |
| CN(C)[C@@H]1C(O)=C(C(N)=O)C(=O)[C@@]2(O)C(O)=C3C(=O)c4c(O)cccc4[C@@](C)(O)[C@H]3C[C@@H]12 [tertracycline] | – | 9594 | 9920 | 9757 | – |
| CCn1cc(C(=O)O)c(=O)c2ccc(C)nc21 [nalidixic acid] | hits | – | – | – | IC50 (E. coli DNA gyrase [4]): > 50 µM; fluorescence intensity compared with negative controls (in words) (E. coli DNA gyrase [1]): much lower |
| CCN(CC)CCCC(C)Nc1ccnc2cc(Cl)ccc12 (stereo not shown) [chloroquine] | – | – | 8002 | – | – |
| CCn1cc(C(=O)O)c(=O)c2cc(F)c(N3CCNCC3)cc21 [norfloxacin] | hits | – | – | – | – |
| CCOc1ccc2nc3cc(N)ccc3c(N)c2c1 [etharcridine] | – | – | – | – | effect on SYBR Green fluorescence intensity (in words) (E. coli DNA gyrase [2]): did not reduce the fluorescence intensity; gyrase-mediated DNA cleavage / gyrase poisoning (in words) (E. coli DNA gyrase [3]): do not possess gyrase poisoning properties; fluorescence intensity compared with negative controls (in words) (E. coli DNA gyrase [1]): significant low fluorescence signals |
| CCn1cc(C(=O)O)c(=O)c2cc(F)c(N3CCNC(C)C3)c(F)c21 (stereo not shown) [lomefloxacin] | hits | – | – | – | – |
| CCn1cc(C(=O)O)c(=O)c2cc3c(cc21)OCO3 [oxolinic acid] | hits | – | – | – | – |
| Cc1ccc(C(=O)Nc2ccc(S(=O)(=O)O)c3cc(S(=O)(=O)O)cc(S(=O)(=O)O)c23)cc1NC(=O)c1cccc(NC(=O)Nc2cccc(C(=O)Nc3cc(C(=O)Nc4ccc(S(=O)(=O)O)c5cc(S(=O)(=O)O)cc(S(=O)(=O)O)c45)ccc3C)c2)c1 [suramin] | – | – | – | – | effect on SYBR Green fluorescence intensity (in words) (E. coli DNA gyrase [2]): did not reduce the fluorescence intensity; gyrase-mediated DNA cleavage / gyrase poisoning (in words) (E. coli DNA gyrase [3]): do not possess gyrase poisoning properties; fluorescence intensity compared with negative controls (in words) (E. coli DNA gyrase [1]): significant low fluorescence signals |
| CS[C@H]1SC[C@H]2C(=O)N(C)[C@@H](C(C)C)C(=O)OC[C@@H](NC(=O)c3cnc4ccccc4n3)C(=O)N[C@@H](C)C(=O)N(C)[C@@H]1C(=O)N(C)[C@@H](C(C)C)C(=O)OC[C@@H](NC(=O)c1cnc3ccccc3n1)C(=O)N[C@@H](C)C(=O)N2C [echinomycin] | – | – | – | – | effect on SYBR Green fluorescence intensity (in words) (E. coli DNA gyrase [2]): did not reduce the fluorescence intensity; gyrase-mediated DNA cleavage / gyrase poisoning (in words) (E. coli DNA gyrase [3]): do not possess gyrase poisoning properties; fluorescence intensity compared with negative controls (in words) (E. coli DNA gyrase [1]): significant low fluorescence signals |
| O=C[C@H](O)[C@@H](O)[C@H](O)[C@H](O)CO [D-glucose] | – | 4444 | 5984 | 5214 | – |
| CCCCCCCCCCCCOS(=O)(=O)[O-].[Na+] [SDS, sodium dodecyl sulfate] | – | – | – | – | effect on T5 exonuclease activity (in words) (T5 exonuclease; 50 nM T5E, FIG. 2D/2E, SDS low concentrations, sarkosyl e.g. 0.015%): completely inhibited T5 exonuclease activity; detergent concentration that inhibits T5 exonuclease (T5 exonuclease; FIG. 3): ≥ 0.05% |
